According to the supplement of paper PMC4862054:

Experiments:
Conditions in all cases: incubation time: 72 h
CAL-51 [1] = assay: normalised viability (% of control), CellTiter-Blue; higher = more viable cells (about 100 = DMSO control)
Summary of the method: (§1)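 Vehicle (100) and a positive kill control (0) anchored the normalisation of each plate, and Z'-factor was used for quality control. Breast cancer cell lines in 20 µl suspension were incubated 72 h over compound in 5 µl medium in 384-well plates, followed by CellTiter-Blue at 560/590 nm. The value is normalised viability at a single listed concentration of the series.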

MDA-MB-231 [2] = assay: as above
Summary of the method: as §1

CAL-120 [3] = assay: as above
Summary of the method: as §1

HDQ-P1 [4] = assay: as above
Summary of the method: as §1

HCC1937 = assay: as above
Summary of the method: as §1

CAL-148 = assay: as above
Summary of the method: as §1

MFM-223 [5] = assay: as above
Summary of the method: as §1

HCC1599 = assay: as above
Summary of the method: as §1

HCC1143 [6] = assay: as above
Summary of the method: as §1

BT-549 = assay: as above
Summary of the method: as §1

BT-474 = assay: as above
Summary of the method: as §1

CAL-85-1 = assay: as above
Summary of the method: as §1

MDA-MB-468 = assay: as above
Summary of the method: as §1

DU-4475 [7] = assay: as above
Summary of the method: as §1

MDA-MB-436 = assay: as above
Summary of the method: as §1

MDA-MB-453 = assay: as above
Summary of the method: as §1

SK-BR-3 [8] = assay: as above
Summary of the method: as §1

CAL-51 [9] = assay: normalised viability (% of control), CellTiter-Blue; higher = more viable cells (100 = DMSO, 0 = benzethonium chloride kill control)
Summary of the method: as §1

MDA-MB-231 [10] = assay: as above
Summary of the method: as §1

CAL-120 [11] = assay: as above
Summary of the method: as §1

HDQ-P1 [12] = assay: as above
Summary of the method: as §1

MFM-223 [13] = assay: as above
Summary of the method: as §1

HCC1143 [14] = assay: as above
Summary of the method: as §1

Hs578T = assay: as above
Summary of the method: as §1

DU-4475 [15] = assay: as above
Summary of the method: as §1

SK-BR-3 [16] = assay: as above
Summary of the method: as §1

COc1ccc(-c2cc3c(C)nc(N)nc3n([C@H]3CC[C@H](OCCO)CC3)c2=O)cn1
Conditions	normalised viability [%]
BT-474, 10 nM	91.8
BT-474, 1000 nM	14.1
BT-474, 10000 nM	0.59
BT-549, 10 nM	86.3
BT-549, 1000 nM	19.1
BT-549, 10000 nM	6.84
CAL-51 [1], 3 nM	99.7
CAL-51 [1], 30 nM	89.1
CAL-51 [1], 100 nM	59
CAL-51 [9], 1 nM	95.4
CAL-85-1, 3 nM	102
CAL-85-1, 30 nM	89.7
CAL-85-1, 100 nM	84.5
CAL-120 [3], 10 nM	107
CAL-120 [3], 1000 nM	21
CAL-120 [3], 10000 nM	11.3
CAL-120 [11], 1 nM	120
CAL-148, 3 nM	87.6
CAL-148, 30 nM	93
CAL-148, 100 nM	78.6
DU-4475 [7], 3 nM	109
DU-4475 [7], 30 nM	96.7
DU-4475 [7], 100 nM	89
DU-4475 [15], 1 nM	106
HCC1143 [6], 10 nM	111
HCC1143 [6], 1000 nM	30.4
HCC1143 [6], 10000 nM	15
HCC1143 [14], 1 nM	106
HCC1599, 10 nM	115
HCC1599, 1000 nM	35.1
HCC1599, 10000 nM	28.2
HCC1937, 10 nM	68.4
HCC1937, 1000 nM	28
HCC1937, 10000 nM	30.2
HDQ-P1 [4], 3 nM	76.7
HDQ-P1 [4], 30 nM	81.6
HDQ-P1 [4], 100 nM	39
HDQ-P1 [12], 1 nM	75.8
Hs578T, 1 nM	100
MDA-MB-231 [2], 10 nM	84.7
MDA-MB-231 [2], 1000 nM	16.7
MDA-MB-231 [2], 10000 nM	8.35
MDA-MB-231 [10], 1 nM	118
MDA-MB-436, 10 nM	103
MDA-MB-436, 1000 nM	15.8
MDA-MB-436, 10000 nM	7.22
MDA-MB-453, 3 nM	103
MDA-MB-453, 30 nM	66.5
MDA-MB-453, 100 nM	48.5
MDA-MB-468, 10 nM	92.7
MDA-MB-468, 1000 nM	21.5
MDA-MB-468, 10000 nM	6.53
MFM-223 [5], 10 nM	92
MFM-223 [5], 1000 nM	16
MFM-223 [5], 10000 nM	7.1
MFM-223 [13], 1 nM	102
SK-BR-3 [8], 10 nM	82.6
SK-BR-3 [8], 1000 nM	10.6
SK-BR-3 [8], 10000 nM	6.34
SK-BR-3 [16], 1 nM	86.5

Cc1cccc(-c2nn3c(c2-c2ccnc4ccc(C(N)=O)cc24)CCC3)n1
Conditions	normalised viability [%]
BT-474, 1 nM	120
BT-474, 100 nM	110
BT-474, 1000 nM	130
BT-549, 1 nM	93.8
BT-549, 100 nM	98.3
BT-549, 1000 nM	109
CAL-51 [1], 0.3 nM	100
CAL-51 [1], 3 nM	93.8
CAL-51 [1], 10 nM	96.5
CAL-51 [9], 0.1 nM	93.5
CAL-85-1, 0.3 nM	99.3
CAL-85-1, 3 nM	94.2
CAL-85-1, 10 nM	101
CAL-120 [3], 1 nM	97.9
CAL-120 [3], 100 nM	92.8
CAL-120 [3], 1000 nM	106
CAL-120 [11], 0.1 nM	98.2
CAL-148, 0.3 nM	93.4
CAL-148, 3 nM	95.2
CAL-148, 10 nM	92.9
DU-4475 [7], 0.3 nM	113
DU-4475 [7], 3 nM	100
DU-4475 [7], 10 nM	115
DU-4475 [15], 0.1 nM	113
HCC1143 [6], 1 nM	98.3
HCC1143 [6], 100 nM	91
HCC1143 [6], 1000 nM	91.1
HCC1143 [14], 0.1 nM	110
HCC1599, 1 nM	86.8
HCC1599, 100 nM	91.6
HCC1599, 1000 nM	96.8
HCC1937, 1 nM	157
HCC1937, 100 nM	108
HCC1937, 1000 nM	126
HDQ-P1 [4], 0.3 nM	120
HDQ-P1 [4], 3 nM	117
HDQ-P1 [4], 10 nM	134
HDQ-P1 [12], 0.1 nM	109
Hs578T, 0.1 nM	113
MDA-MB-231 [2], 1 nM	109
MDA-MB-231 [2], 100 nM	128
MDA-MB-231 [2], 1000 nM	111
MDA-MB-231 [10], 0.1 nM	113
MDA-MB-436, 1 nM	120
MDA-MB-436, 100 nM	96.9
MDA-MB-436, 1000 nM	128
MDA-MB-453, 0.3 nM	122
MDA-MB-453, 3 nM	108
MDA-MB-453, 10 nM	97.2
MDA-MB-468, 1 nM	106
MDA-MB-468, 100 nM	120
MDA-MB-468, 1000 nM	105
MFM-223 [5], 1 nM	96.6
MFM-223 [5], 100 nM	96.5
MFM-223 [5], 1000 nM	93.6
MFM-223 [13], 0.1 nM	103
SK-BR-3 [8], 1 nM	116
SK-BR-3 [8], 100 nM	101
SK-BR-3 [8], 1000 nM	103
SK-BR-3 [16], 0.1 nM	106

Cn1cc(CNCC2CCN(c3ncc(C(=O)NO)cn3)CC2)c2ccccc21
Conditions	normalised viability [%]
BT-474, 1 nM	97.9
BT-474, 100 nM	8.46
BT-474, 1000 nM	7.06
BT-549, 1 nM	78
BT-549, 100 nM	75.1
BT-549, 1000 nM	12
CAL-51 [1], 0.3 nM	116
CAL-51 [1], 3 nM	115
CAL-51 [1], 10 nM	97.2
CAL-51 [9], 0.1 nM	105
CAL-85-1, 0.3 nM	90
CAL-85-1, 3 nM	79.9
CAL-85-1, 10 nM	65.1
CAL-120 [3], 1 nM	88.7
CAL-120 [3], 100 nM	12.5
CAL-120 [3], 1000 nM	3.89
CAL-120 [11], 0.1 nM	89.2
CAL-148, 0.3 nM	95.6
CAL-148, 3 nM	89.2
CAL-148, 10 nM	53.9
DU-4475 [7], 0.3 nM	88.5
DU-4475 [7], 3 nM	93.7
DU-4475 [7], 10 nM	60
DU-4475 [15], 0.1 nM	97.6
HCC1143 [6], 1 nM	83
HCC1143 [6], 100 nM	23.6
HCC1143 [6], 1000 nM	11.1
HCC1143 [14], 0.1 nM	95.7
HCC1599, 1 nM	101
HCC1599, 100 nM	28
HCC1599, 1000 nM	14.5
HCC1937, 1 nM	69.2
HCC1937, 100 nM	31.8
HCC1937, 1000 nM	14.7
HDQ-P1 [4], 0.3 nM	104
HDQ-P1 [4], 3 nM	88.9
HDQ-P1 [4], 10 nM	88.6
HDQ-P1 [12], 0.1 nM	83.6
Hs578T, 0.1 nM	120
MDA-MB-231 [2], 1 nM	103
MDA-MB-231 [2], 100 nM	17.7
MDA-MB-231 [2], 1000 nM	5.23
MDA-MB-231 [10], 0.1 nM	95.6
MDA-MB-436, 1 nM	94.5
MDA-MB-436, 100 nM	80.6
MDA-MB-436, 1000 nM	17.7
MDA-MB-453, 0.3 nM	113
MDA-MB-453, 3 nM	63.6
MDA-MB-453, 10 nM	25.8
MDA-MB-468, 1 nM	107
MDA-MB-468, 100 nM	38
MDA-MB-468, 1000 nM	14.5
MFM-223 [5], 1 nM	88.9
MFM-223 [5], 100 nM	28.5
MFM-223 [5], 1000 nM	8.06
MFM-223 [13], 0.1 nM	89.5
SK-BR-3 [8], 1 nM	86.2
SK-BR-3 [8], 100 nM	8.01
SK-BR-3 [8], 1000 nM	2.99
SK-BR-3 [16], 0.1 nM	97.5
